Changes are numbered by the printed parent chain. In names and notes the source's numbering stands. Like-named read-outs stand apart in the source and are kept apart here.
What was measured:
[1] = biological target: T1, synthetic red click beetle luciferase RD (RDver5.2; YG#81-6G01 variant A224H/S247H/N346I/H348Q/R351G), SEQ ID NO: 222 (Pyrophorus plagiophthalamus, UniProt Q718C1); test: Km determination with partially purified enzyme (Table 3), RD; assay type: biochemical
T1 construct: C-terminal tail changed
Source text: (§1) The parent click beetle luciferase YG#81-6G1 (“YG”), and the synthetic click beetle luciferase genes GRver5.1 (“GR”), RDver5.2 (“RD”), and RD156-1H9 were cloned into the four pGL3 reporter vectors (Promega Corp.): • pGL3-Basic=no promoter, no enhancer • pGL3-Control=SV40 promoter, SV40 enhancer • pGL3-Enhancer=SV40 enhancer (3′ to luciferase coding sequences) • pGL3-Promoter=SV40 promoter. The primers employed in the assembly of GR and RD synthetic genes facilitated the cloning of those genes into pRAM vectors. To introduce the genes into pGL3 vectors (Promega Corp., Madison, Wis.) for analysis in mammalian cells, each gene in a pRAM vector (pRAM RDver5.1, pRAM GRver5.1, and pRAM RD156-1H9) was amplified to introduce an Nco I site at the 5′ end and an Xba I site at the 3′ end of the gene. The primers for pRAM RDver5.1 and pRAM GRver5.1 were: […]
(§2) Partially purified enzymes expressed from the synthetic genes and the parent gene were employed to determine Km for luciferin and ATP (see Table 3).

[2] = biological target: T2, click beetle luciferase RDver5.2 variant RD156-0B4 (Pyrophorus plagiophthalamus, UniProt Q718C1, A224Y/A287S/C127T/C60V/F45V, form not given/H348Q/I288V/I91V/K85T/L262F/N249T/N346I/S247H/V325A/V389I/Y183F); test: Km for luciferin, lysates of bacterial cells (Table 6), RD156-0B4; assay type: biochemical; details: read-out: Km Luciferin, CCLR lysate diluted 1:10, HEPES pH 7.8
T2 construct: lysate of bacterial cells
Description: (§3) Protocols and procedures used for the directed evolution are detailed in see PCT/WO9914336. DNA from the four clones with lower Km was combined and three libraries of random mutants were produced. The libraries were screened with the robot and clones with the highest LI values were selected. These clones were shuffled together and another robotic screen was completed with an incubation temperature of 46° C. The three clones with the highest LI values were RD156-0B4, RD156-1A5, and RD156-1H9.
(§4) The Km values for luciferin and the luminescence intensity relative to RDver5.2 were determined for all three clones in several independent experiments. All cells samples were processed with CCLR lysis buffer (E1483, Promega Corp., Madison, Wis.) and diluted 1:10 into buffer (25 mM HEPES pH 7.8, 5% glycerol, 1 mg/ml BSA, 150 mM NaCl). Table 7 summarizes the results (Lum: luminescence values were normalized to optical density; measurements for independent experiments are separated by forward slashes) from expression in bacterial cells. RD156-1H9, the clone with the highest luminescence intensity (5 to 10-fold increase) also has an about 2-fold higher Km for luciferin.

[3] = biological target: T3, click beetle luciferase RDver5.2 variant RD156-1A5 (Pyrophorus plagiophthalamus, UniProt Q718C1, A224Y/A287S/C127T/C60V/F45V, form not given/H348Q/I288V/I91V/K85T/L262F/N249T/N346I/S247H/V325A/V389I/Y183F); test: Km for luciferin, lysates of bacterial cells (Table 6), RD156-1A5; assay type: biochemical; details: read-out: Km Luciferin, CCLR lysate diluted 1:10, HEPES pH 7.8
T3 construct: lysate of bacterial cells
Description: as §3, §4

[4] = biological target: T4, click beetle luciferase RDver5.2 variant RD156-1H9 (M2I/S349T/K488T/E538V), SEQ ID NO: 223 (Pyrophorus plagiophthalamus, UniProt Q718C1); assay type: biochemical; details: for Km: read-out: Km Luciferin, CCLR lysate diluted 1:10, HEPES pH 7.8
T4 construct: C-terminal tail changed; lysate of bacterial cells
Description: Protocols and procedures used for the directed evolution are detailed in see PCT/WO9914336. […] The libraries were screened with the robot and clones with the highest LI values were selected. These clones were shuffled together and another robotic screen was completed with an incubation temperature of 46° C.
as §4, with “cells.” for “cells. RD156-1H9, the clone with the highest luminescence intensity (5 to 10-fold increase) also has an about 2-fold higher Km for luciferin.”

[5] = biological target: T5, synthetic red click beetle luciferase RDver5.2 (YG#81-6G01 variant A224H/S247H/N346I/H348Q/R351G), SEQ ID NO: 222 (Pyrophorus plagiophthalamus, UniProt Q718C1); test: Km for luciferin, lysates of bacterial cells (Table 6), RDver5.2; assay type: biochemical; details: read-out: Km Luciferin, CCLR lysate diluted 1:10, HEPES pH 7.8
T5 construct: C-terminal tail changed; lysate of bacterial cells
Description: as §4

[6] = test system: click beetle luciferase YG#81-6G01 (mutant of wild type LucPplYG, SEQ ID NO: 23), SEQ ID NO: 24; details: vs wild type LucPplYG; cited from earlier work
MCF-7 cells = test: TPA induction of Renilla luciferase co-reporter vectors in transfected MCF-7 cells (Table 13); assay type: cell-based; details: Homo sapiens, MCF7, 24 h, 0.2 nM TPA, vs untreated
Description: Experimental treatment sometimes may activate cryptic sites within the gene and cause induction or suppression of the co-reporter expression, which would compromise its function as co-reporter for normalization of transfection efficiencies. One example is that TPA induces expression of co-reporter vectors harboring the wild-type gene when transfecting MCF-7 cells. 500 ng pRL-TK (native), 5 μg native and synthetic pRG-B, 2.5 μg native and synthetic pRG-TK were transfected per well of MCF-7 cells. 100 ng/well pGL3-control (firefly luc+) was co-transfected with all RL plasmids. Carrier DNA, pUC19, was used to bring the total DNA transfected to 5.1 μg/well. 15.3 μl TransFast Transfection Reagent (Promega Corp., Madison, Wis.) was added per well. Sixteen hours later, cells were trypsinized, pooled and split into six wells of a 6-well dish and allowed to attach to the well for 8 hours. Three wells were then treated with the 0.2 nM of the tumor promoter, TPA (phorbol-12-myristate-13-acetate, Calbiochem #524400-S), and three wells were mock treated with 20 μl DMSO. Cells were harvested with 0.4 ml Passive Lysis Buffer 24 hours post TPA addition.

[7] = substrate: Nc1ncnc2c1ncn2[C@@H]1O[C@H](COP(=O)(O)OP(=O)(O)OP(=O)(O)O)[C@@H](O)[C@H]1O; test: Km determination with partially purified enzyme (Table 3), YG parent; assay type: biochemical, Pyrophorus plagiophthalamus; details: other: partially purified enzyme
Source text: as §2

[8] = substrate: O=C(O)[C@H]1CSC(c2nc3ccc(O)cc3s2)=N1; test: as above; assay type: biochemical, Pyrophorus plagiophthalamus; details: other: partially purified enzyme
Source text: as §2

[9] = substrate: Nc1ncnc2c1ncn2[C@@H]1O[C@H](COP(=O)(O)OP(=O)(O)OP(=O)(O)O)[C@@H](O)[C@H]1O; test: Km determination with partially purified enzyme (Table 3), GR; assay type: biochemical, Pyrophorus plagiophthalamus; details: other: partially purified enzyme
Source text: as §1, §2

[10] = substrate: O=C(O)[C@H]1CSC(c2nc3ccc(O)cc3s2)=N1; test: as above; assay type: biochemical, Pyrophorus plagiophthalamus; details: other: partially purified enzyme
Source text: as §1, §2

[11] = substrate: O=C(O)[C@H]1CSC(c2nc3ccc(O)cc3s2)=N1; test: Km for luciferin, lysates of bacterial cells (Table 6), GRver5.1; assay type: biochemical, Pyrophorus plagiophthalamus
Description: as §4

T4 sequence (Q718C1 entry or part of it, stated change not applied): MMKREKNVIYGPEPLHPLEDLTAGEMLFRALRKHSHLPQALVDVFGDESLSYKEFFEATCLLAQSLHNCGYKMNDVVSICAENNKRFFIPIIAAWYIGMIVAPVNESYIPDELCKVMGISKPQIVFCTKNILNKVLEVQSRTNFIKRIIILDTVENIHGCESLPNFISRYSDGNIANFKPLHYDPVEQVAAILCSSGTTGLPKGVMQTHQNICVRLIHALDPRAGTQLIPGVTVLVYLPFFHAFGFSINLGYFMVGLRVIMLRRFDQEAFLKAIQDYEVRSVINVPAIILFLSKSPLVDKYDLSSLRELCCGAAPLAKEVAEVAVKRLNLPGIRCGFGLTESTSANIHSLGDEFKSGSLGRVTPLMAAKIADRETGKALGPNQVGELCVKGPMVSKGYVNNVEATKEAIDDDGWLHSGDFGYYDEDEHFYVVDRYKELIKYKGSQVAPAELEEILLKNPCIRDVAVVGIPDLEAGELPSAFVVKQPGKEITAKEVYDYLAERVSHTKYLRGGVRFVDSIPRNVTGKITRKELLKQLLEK
T5 sequence (Q718C1 entry or part of it, stated change not applied): as above
T1 sequence (Q718C1 entry or part of it, stated change not applied): as above

Molecule: O=C(O)[C@H]1CSC(c2nc3ccc(O)cc3s2)=N1 [luciferin]
- Km ([1]; read-out: KM (LH2)): 24.5 µM
- Km ([2]; independent experiment 1): 8 µM
- Km ([2]; independent experiment 2): 10 µM
- Km ([3]; independent experiment 1): 13 µM
- Km ([3]; independent experiment 2): 13 µM
- Km ([4]; independent experiment 1): 20 µM
- Km ([4]; independent experiment 2): 23 µM
- Km ([4]; independent experiment 3): 23 µM
- luciferin K, fold higher ([4]; relative to GRver5.1): approximately 40 fold
- Km for luciferin, fold higher ([4]; relative to RDver5.2): about 2 fold
- Km ([5]; prep #1, independent experiment 1): 12 µM
- Km ([5]; prep #1, independent experiment 2): 14 µM
- Km ([5]; prep #1, independent experiment 3): 14 µM
- Km ([5]; prep #2, independent experiment 1): 40 µM
- Km ([5]; prep #2, independent experiment 2): 50 µM
- KM for luciferin compared to the wild type [6]: lower

Molecule: CCCCCCCCCCCCCC(=O)O[C@@H]1[C@@H](C)[C@@]2(O)[C@@H](C=C(CO)C[C@]3(O)C(=O)C(C)=C[C@@H]23)[C@@H]2C(C)(C)[C@]12OC(C)=O [TPA, phorbol-12-myristate-13-acetate]
- fold induction (MCF-7 cells; pRG-B (final, synthetic Renilla gene)): 1.47
- fold induction (MCF-7 cells; pRG-B (native Renilla gene)): 8
- fold induction (MCF-7 cells; pRG-tk (final, synthetic Renilla gene)): 0.88
- fold induction (MCF-7 cells; pRG-tk (native Renilla gene)): 4.36
- fold induction (MCF-7 cells; pRL-tk (native Renilla gene)): 4.4

Molecule: Nc1ncnc2c1ncn2[C@@H]1O[C@H](COP(=O)(O)OP(=O)(O)OP(=O)(O)O)[C@@H](O)[C@H]1O [ATP]
- Km ([1]; read-out: KM (ATP)): 46 µM
- KM for ATP compared to the wild type [6]: lower

B1: click beetle (Pyrophorus plagiophthalamus) luciferase YG#81-6G01 (YG parent, mutant of wild type LucPplYG), SEQ ID NO: 24 (Pyrophorus plagiophthalamus; … (protein)
chain: MMKREKNVIYGPEPLHPLEDLTAGEMLFRALRKHSHLPQALVDVVGDESLSYKEFFEATVLLAQSLHNCGYKMNDVVSICAENNTRFFIPVIAAWYIGMIVAPVNESYIPDELCKVMGISKPQIVFTTKNILNKVLEVQSRTNFIKRIIILDTVENIHGCESLPNFISRYSDGNIANFKPLHFDPVEQVAAILCSSGTTGLPKGVMQTHQNICVRLIHALDPRAGTQLIPGVTVLVYLPFFHAFGFSITLGYFMVGLRVIMFRRFDQEAFLKAIQDYEVRSVINVPSVILFLSKSPLVDKYDLSSLRELCCGAAPLAKEVAEVAAKRLNLPGIRCGFGLTESTSANIHSLRDEFKSGSLGRVTPLMAAKIADRETGKALGPNQVGELCIKGPMVSKGYVNNVEATKEAIDDDGWLHSGDFGYYDEDEHFYVVDRYKELIKYKGSQVAPAELEEILLKNPCIRDVAVVGIPDLEAGELPSAFVVKQPGKEITAKEVYDYLAERVSHTKYLRGGVRFVDSIPRNVTGKITRKELLKQLLEKAGG
notes: wild-type residues 540-543 replaced by 3 other residues
- Km [7]: 17 μM μM
- Km [8]: 2 μM μM

B2: synthetic green click beetle luciferase GR (GRver5.1; YG#81-6G01 variant A224V), SEQ ID NO: 31 (Pyrophorus plagiophthalamus; … (protein)
chain: B1 chain with A224V
notes: C-terminal tail changed
- Km [9]: 25 μM μM
- Km [10]: 1.3 μM μM

B3: synthetic green click beetle luciferase GRver5.1 (YG#81-6G01 variant A224V), SEQ ID NO: 31 (Pyrophorus plagiophthalamus; … (protein)
chain: B1 chain with A224V
notes: C-terminal tail changed; lysate of bacterial cells
- Km ([11]; other: prep #1, CCLR lysate diluted 1:10, HEPES pH 7.8): 0.5 µM
- Km ([11]; other: prep #2, CCLR lysate diluted 1:10, HEPES pH 7.8): 3 µM

— US7906282B2, “Synthetic nucleic acid molecule compositions and methods of preparation” (Promega Corporation, priority 2000, dated 2011)
